# Target: T1, TbrPDEB1 (Trypanosoma brucei, UniProt Q8WQX9)
# T1 construct: The TbrPDEB1 catalytic domain phosphodiesterase activity assays were conducted based on a method reported by Sijm et al
# T1 sequence (Q8WQX9 565-918 limits assumed): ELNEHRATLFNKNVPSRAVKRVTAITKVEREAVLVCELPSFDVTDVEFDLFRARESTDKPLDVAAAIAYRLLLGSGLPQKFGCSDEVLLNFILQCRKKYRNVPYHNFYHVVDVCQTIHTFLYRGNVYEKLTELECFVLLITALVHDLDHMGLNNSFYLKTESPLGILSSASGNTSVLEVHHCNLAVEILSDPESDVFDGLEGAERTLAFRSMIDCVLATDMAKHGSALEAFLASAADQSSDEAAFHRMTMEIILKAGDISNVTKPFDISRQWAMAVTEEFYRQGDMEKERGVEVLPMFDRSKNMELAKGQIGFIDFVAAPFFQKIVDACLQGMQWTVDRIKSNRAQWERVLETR
# Assay: TbrPDEB1 catalytic domain phosphodiesterase activity assay (PDELight HTS cAMP kit)
# Assay type: biochemical
# Conditions: single point assay at 10 μM inhibitor
# Experimental: The TbrPDEB1 catalytic domain phosphodiesterase activity assays were conducted based on a method reported by Sijm et al. ([2019]) with minor adaptations (Sijm et al., [2019]). The PDELight™ HTS cAMP phosphodiesterase Kit (Lonza, Walkersville, USA) was performed at 25°C in non-binding, low volume 384-well plates (Corning, Kennebunk, ME, USA). […] Single concentration measurements were made at 10 μM inhibitor concentration (triplo measurements/assay, n = 2). Dose-response curves were made in the range 100 μM−10 pM (triplo measurements/assay, n = 3). Compounds were diluted in DMSO (final in-test concentration 1%). Inhibitor dilutions (2.5 μL) were transferred to the 384-well plates, 2.5 μL of PDE in stimulation buffer was added and mixed, 5 μL of cAMP (at 2 × Km up to 20 μM) added and the assay mixture was incubated for 20 min at 300 rpm. […] Then, 5 μL of Lonza Detection reagent (diluted to 80% with reaction buffer) was added and the reaction incubated for 10 min at 300 rpm. Luminescence was read with a Victor3 luminometer using a 0.1 s/well program.
# The Ki values of the inhibitors analyzed are represented as the mean of at least three independent experiments with the associated standard error of the mean (S.E.M.).
row,Structure (SMILES),TbrPDEB1 (% inh.)
1,"CCCCNC(=O)c1cccnc1Oc1cc(C2=NN(C(C)C)C(=O)[C@@H]3CC=CC[C@H]23)ccc1OC (relative stereo) [3p, N-Butyl-2-(5-(cis-3-isopropyl-4-oxo-3,4,4a,5,8,8a-hexahydrophthalazin-1-yl)-2-methoxyphenoxy)nicotinamide]",No inhibition
2,"COc1ccc(C2=NN(C(C)C)C(=O)[C@@H]3CC=CC[C@H]23)cc1Oc1ncccc1C(=O)O (relative stereo) [3e, 2-(5-(cis-3-Isopropyl-4-oxo-3,4,4a,5,8,8a-hexahydrophthalazin-1-yl)-2-methoxyphenoxy)nicotinic acid]",No inhibition
3,"COc1ccc(C2=NN(C(C)C)C(=O)[C@H]3CC=CC[C@@H]23)cc1Oc1ncnc2sccc12 (relative stereo) [2k, cis-2-Isopropyl-4-(4-methoxy-3-(thieno[2,3-d]pyrimidin-4-yloxy)phenyl)-4a,5,8,8a-tetrahydrophthalazin-1(2H)-one]",No inhibition
4,"COc1ccc(C2=NN(C(C)C)C(=O)[C@@H]3CC=CC[C@H]23)cc1Oc1ncccc1C(N)=O (relative stereo) [3i, 2-(5-(cis-3-Isopropyl-4-oxo-3,4,4a,5,8,8a-hexahydrophthalazin-1-yl)-2-methoxyphenoxy)nicotinamide]",No inhibition
5,"CCCCNC(=O)c1ccnc(Oc2cc(C3=NN(C(C)C)C(=O)[C@@H]4CC=CC[C@H]34)ccc2OC)c1 (relative stereo) [3q, N-Butyl-2-(5-(cis-3-isopropyl-4-oxo-3,4,4a,5,8,8a-hexahydrophthalazin-1-yl)-2-methoxyphenoxy)isonicotinamide]",No inhibition
6,"COc1ccc(C2=NN(C(C)C)C(=O)[C@@H]3CC=CC[C@H]23)cc1Oc1cc(C#N)ccn1 (relative stereo) [3b, 2-(5-(cis-3-Isopropyl-4-oxo-3,4,4a,5,8,8a-hexahydrophthalazin-1-yl)-2-methoxyphenoxy)isonicotinonitrile]",No inhibition
7,"COc1ccc(C2=NN(C(C)C)C(=O)[C@@H]3CC=CC[C@H]23)cc1Oc1cccc(C(=O)O)n1 (relative stereo) [3h, 6-(5-(cis-3-Isopropyl-4-oxo-3,4,4a,5,8,8a-hexahydrophthalazin-1-yl)-2-methoxyphenoxy)picolinic acid]",No inhibition
8,"COc1ccc(C2=NN(C(C)C)C(=O)[C@H]3CC=CC[C@@H]23)cc1Oc1nc2ccccc2s1 (relative stereo) [2p, cis-4-(3-(Benzo[d]thiazol-2-yloxy)-4-methoxyphenyl)-2-isopropyl-4a,5,8,8a-tetrahydrophthalazin-1(2H)-one]",No inhibition
9,"COc1ccc(C2=NN(C(C)C)C(=O)[C@@H]3CC=CC[C@H]23)cc1Oc1cc(C(N)=O)ccn1 (relative stereo) [3j, 2-(5-(cis-3-Isopropyl-4-oxo-3,4,4a,5,8,8a-hexahydrophthalazin-1-yl)-2-methoxyphenoxy)isonicotinamide]",No inhibition
10,"COc1ccc(C2=NN(C(C)C)C(=O)[C@@H]3CC=CC[C@H]23)cc1Oc1ccc(C(N)=O)cn1 (relative stereo) [3k, 6-(5-(cis-3-Isopropyl-4-oxo-3,4,4a,5,8,8a-hexahydrophthalazin-1-yl)-2-methoxyphenoxy)nicotinamide]",No inhibition
11,"COc1ccc(C2=NN(C(C)C)C(=O)[C@H]3CC=CC[C@@H]23)cc1Oc1nccc2sccc12 (relative stereo) [2j, cis-2-Isopropyl-4-(4-methoxy-3-(thieno[3,2-c]pyridin-4-yloxy)phenyl)-4a,5,8,8a-tetrahydrophthalazin-1(2H)-one]",No inhibition
12,"COc1ccc(C2=NN(C(C)C)C(=O)[C@H]3CC=CC[C@@H]23)cc1Oc1nccn2cnnc12 (relative stereo) [2l, cis-4-(3-([1,2,4]Triazolo[4,3-a]pyrazin-8-yloxy)-4-methoxyphenyl)-2-isopropyl-4a,5,8,8a-tetrahydrophthalazin-1(2H)-one]",No inhibition
13,"COc1ccc(C2=NN(C(C)C)C(=O)[C@@H]3CC=CC[C@H]23)cc1Oc1ccc(C(=O)NCc2ccco2)cn1 (relative stereo) [3v, N-(Furan-2-ylmethyl)-6-(5-(cis-3-isopropyl-4-oxo-3,4,4a,5,8,8a-hexahydrophthalazin-1-yl)-2-methoxyphenoxy)nicotinamide]",No inhibition
14,"COC(=O)c1cccnc1Oc1cc(C2=NN(C(C)C)C(=O)[C@@H]3CC=CC[C@H]23)ccc1OC (relative stereo) [3a, Methyl 2-(5-(cis-3-isopropyl-4-oxo-3,4,4a,5,8,8a-hexahydrophthalazin-1-yl)-2-methoxyphenoxy)nicotinate]",No inhibition
15,"COc1ccc(C2=NN(C(C)C)C(=O)[C@@H]3CC=CC[C@H]23)cc1Oc1cc(C(=O)O)ccn1 (relative stereo) [3f, 2-(5-(cis-3-Isopropyl-4-oxo-3,4,4a,5,8,8a-hexahydrophthalazin-1-yl)-2-methoxyphenoxy)isonicotinic acid]",No inhibition
16,"COc1ccc(C2=NN(C(C)C)C(=O)[C@@H]3CC=CC[C@H]23)cc1Oc1ncccc1C(=O)NCc1ccco1 (relative stereo) [3t, N-(Furan-2-ylmethyl)-2-(5-(cis-3-isopropyl-4-oxo-3,4,4a,5,8,8a-hexahydrophthalazin-1-yl)-2-methoxyphenoxy)nicotinamide]",No inhibition
17,"CCCCNC(=O)c1ccc(Oc2cc(C3=NN(C(C)C)C(=O)[C@@H]4CC=CC[C@H]34)ccc2OC)nc1 (relative stereo) [3r, N-Butyl-6-(5-(cis-3-isopropyl-4-oxo-3,4,4a,5,8,8a-hexahydrophthalazin-1-yl)-2-methoxyphenoxy)nicotinamide]",No inhibition

# Same assay, conditions: single point assay at 10 μM inhibitor; read-out: TbrPDEB1 (% inh.)
row,Structure (SMILES),inhibition at 10 µM [%]
1,"COc1ccc(C2=NN(C(C)C)C(=O)[C@@H]3CC=CC[C@H]23)cc1Oc1cccc(C#N)n1 (relative stereo) [3d, 6-(5-(cis-3-Isopropyl-4-oxo-3,4,4a,5,8,8a-hexahydrophthalazin-1-yl)-2-methoxyphenoxy)picolinonitrile]",36 ± 6
2,"COc1ccc(C2=NN(C(C)C)C(=O)[C@@H]3CC=CC[C@H]23)cc1Oc1cccc(C(=O)NCC(N)=O)n1 (relative stereo) [3o, N-(2-Amino-2-oxoethyl)-6-(5-(cis-3-isopropyl-4-oxo-3,4,4a,5,8,8a-hexahydrophthalazin-1-yl)-2-methoxyphenoxy)picolinamide]",40 ± 1
3,"COc1ccc(C2=NN(C(C)C)C(=O)[C@@H]3CC=CC[C@H]23)cc1Oc1cnc(C(N)=O)cn1 (relative stereo) [2e, 5-(5-(cis-3-Isopropyl-4-oxo-3,4,4a,5,8,8a-hexahydrophthalazin-1-yl)-2-methoxyphenoxy)pyrazine-2-carboxamide]",18 ± 9
4,"COc1ccc(C2=NN(C(C)C)C(=O)[C@@H]3CC=CC[C@H]23)cc1Oc1cc(C(=O)NCC(N)=O)ccn1 (relative stereo) [3m, N-(2-Amino-2-oxoethyl)-2-(5-(cis-3-isopropyl-4-oxo-3,4,4a,5,8,8a-hexahydrophthalazin-1-yl)-2-methoxyphenoxy)isonicotinamide]",27
5,"CCOC(=O)c1cnc(Oc2cc(C3=NN(C(C)C)C(=O)[C@@H]4CC=CC[C@H]34)ccc2OC)s1 (relative stereo) [2b, Ethyl 2-(5-(cis-3-isopropyl-4-oxo-3,4,4a,5,8,8a-hexahydrophthalazin-1-yl)-2-methoxyphenoxy)thiazole-5-carboxylate]",11
6,"COc1ccc(C2=NN(C(C)C)C(=O)[C@@H]3CC=CC[C@H]23)cc1Oc1ccc(C(=O)NCC(N)=O)cn1 (relative stereo) [3n, N-(2-Amino-2-oxoethyl)-6-(5-(cis-3-isopropyl-4-oxo-3,4,4a,5,8,8a-hexahydrophthalazin-1-yl)-2-methoxyphenoxy)nicotinamide]",5 ± 1
7,"COc1ccc(C2=NN(C(C)C)C(=O)[C@H]3CC=CC[C@@H]23)cc1Oc1ncc(CN2CCOCC2)s1 (relative stereo) [2c, cis-2-Isopropyl-4-(4-methoxy-3-((5-(morpholinomethyl)thiazol-2-yl)oxy)phenyl)-4a,5,8,8a-tetrahydrophthalazin-1(2H)-one]",40 ± 4
8,"COc1ccc(C2=NN(C(C)C)C(=O)[C@H]3CC=CC[C@@H]23)cc1Oc1cc(N2CCOCC2)ncn1 (relative stereo) [2f, cis-2-Isopropyl-4-(4-methoxy-3-((6-morpholinopyrimidin-4-yl)oxy)phenyl)-4a,5,8,8a-tetrahydrophthalazin-1(2H)-one]",11 ± 8

# From PMC7859335, “Discovery of Diaryl Ether Substituted Tetrahydrophthalazinones as TbrPDEB1 Inhibitors Following Structure-Based Virtual Screening” (Frontiers in Chemistry, 2021)
